Measurements as given in paper PMC8584989 (International Journal of Molecular Sciences, 2021).
Like-named read-outs stand apart in the source and are kept apart here.

Assays:
[1] = biological target: T1, CYP1A2 (Homo sapiens, UniProt P05177); assay: Vivid CYP450 Screening Kit, recombinant CYP1A2; type: in vitro ADME
T1 construct: purchased Thermo Fisher Scientific
Method: (§1) CYP inhibitory assay was performed using Vivid CYP450 screening kit as described previously. The kits consist of microsomal fraction containing human CYP isoforms, human CYP reductase and in several cases cytochrome b5. Experiments were performed following the manufacturer’s protocol on black 96-well plates using kinetic mode. […] Then, the master mix (CYP isoenzyme with an NADPH regeneration system in buffer) was added in each well and plate was pre-incubated for 10 min. The reaction was started with the mixture of NADP^+ and Vivid substrate and the fluorescence of samples was measured in 1 min interval for 60 min using an Infinite M200 Pro microplate reader (Tecan, Männedorf, Switzerland). Data from linear phase (15 min) were used for data evaluation.

[2] = system: ABC transporters and CYPs; assay: Gene expression (induction) studies by qRT-PCR; type: cell-based, human; settings: 1.5 µM tepotinib; DI-related models, NSCLC cell lines and primary NSCLC cultures
Method: Gene expression studies were performed employing quantitative real-time reverse transcription PCR (qRT-PCR) technique as described in our previous papers.
The Caco-2, LS174T, A549, NCI-H1299 cells or primary lung cancer cells were seeded on 12-well plates with the densities of 50 × 10^4, 100 × 10^4, 24 × 10^4, 18 × 10^4 or 15 × 10^4 cells/well, respectively, and incubated for 24 h. […] Samples were collected at 24 h and 48 h intervals after drug treatment using TRI Reagent and then, mRNA isolation was performed. Agarose gel electrophoresis was used for the control of RNA quality and integrity and the RNA yield was monitored via NanoDrop ND-1000 spectrophotometer (American Laboratory Trading, East Lyme, CT, USA). RNA (1000 ng) was transcribed to cDNA using gb Reverse Transcription Kit. ABCB1, ABCG2 and ABCC1 mRNA expressions were detected with Master Mix and TaqMan-based qRT-PCR systems using QuantStudio 6 (Life Technologies, Carlsbad, CA, USA). […]
In the case of the HepaFH3 hepatocytes, first, viability was analyzed with CellTiter-Glo 2.0 Viability Assay; the luminescence was measured using a microplate reader (FLUOstar Omega, BMG Labtech, Ortenberg, Germany). […] RNA integrity and quality was checked by agarose gel electrophoresis and the concentration assessed by NanoDrop. […]

[3] = biological target: ABCC1 (Homo sapiens, UniProt P33527); assay: Inhibitory accumulation assay in MDCKII-ABCC1 cells; type: cell-based
ABCC1, sequence (P33527 whole entry): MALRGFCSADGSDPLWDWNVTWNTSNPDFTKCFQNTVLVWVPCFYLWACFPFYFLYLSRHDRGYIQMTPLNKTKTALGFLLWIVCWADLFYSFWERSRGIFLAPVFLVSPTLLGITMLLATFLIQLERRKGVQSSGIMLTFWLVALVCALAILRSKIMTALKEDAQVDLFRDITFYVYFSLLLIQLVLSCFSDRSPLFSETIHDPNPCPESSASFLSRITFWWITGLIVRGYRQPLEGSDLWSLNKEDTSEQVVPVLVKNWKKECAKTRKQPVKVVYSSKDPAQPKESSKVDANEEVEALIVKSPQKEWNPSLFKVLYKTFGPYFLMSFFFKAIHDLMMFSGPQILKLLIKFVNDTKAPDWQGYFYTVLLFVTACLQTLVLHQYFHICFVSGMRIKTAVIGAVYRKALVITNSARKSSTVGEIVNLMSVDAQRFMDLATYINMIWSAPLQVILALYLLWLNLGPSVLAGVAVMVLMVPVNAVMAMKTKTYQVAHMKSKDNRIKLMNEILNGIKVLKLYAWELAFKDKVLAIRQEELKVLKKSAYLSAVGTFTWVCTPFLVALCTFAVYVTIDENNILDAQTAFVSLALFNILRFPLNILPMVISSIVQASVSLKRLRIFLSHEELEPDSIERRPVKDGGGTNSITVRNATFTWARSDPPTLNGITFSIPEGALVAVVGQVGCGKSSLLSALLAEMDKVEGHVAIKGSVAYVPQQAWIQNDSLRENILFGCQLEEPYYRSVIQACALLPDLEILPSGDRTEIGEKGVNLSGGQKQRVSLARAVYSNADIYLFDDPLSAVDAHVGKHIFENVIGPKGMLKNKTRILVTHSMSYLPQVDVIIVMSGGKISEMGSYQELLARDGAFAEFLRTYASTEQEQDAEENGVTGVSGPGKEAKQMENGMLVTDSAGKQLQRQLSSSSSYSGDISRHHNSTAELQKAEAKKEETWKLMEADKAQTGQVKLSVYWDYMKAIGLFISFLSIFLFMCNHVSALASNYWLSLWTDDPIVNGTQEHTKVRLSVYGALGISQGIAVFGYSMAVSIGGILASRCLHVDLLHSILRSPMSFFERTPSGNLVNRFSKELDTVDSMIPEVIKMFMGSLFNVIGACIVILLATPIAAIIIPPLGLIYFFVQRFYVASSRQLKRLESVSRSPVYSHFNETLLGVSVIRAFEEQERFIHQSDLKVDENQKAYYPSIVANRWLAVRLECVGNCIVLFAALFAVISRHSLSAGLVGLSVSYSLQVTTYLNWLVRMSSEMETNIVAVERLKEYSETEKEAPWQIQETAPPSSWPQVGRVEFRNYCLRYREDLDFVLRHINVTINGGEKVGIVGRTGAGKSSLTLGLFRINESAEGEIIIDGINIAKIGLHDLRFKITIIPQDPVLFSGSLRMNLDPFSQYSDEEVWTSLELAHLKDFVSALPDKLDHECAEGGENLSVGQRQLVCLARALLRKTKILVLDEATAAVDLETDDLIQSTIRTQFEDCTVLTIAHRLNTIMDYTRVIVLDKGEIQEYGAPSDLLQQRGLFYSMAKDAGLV
Method: Accumulation assays were performed as described previously. […] The daunorubicin and mitoxantrone accumulation assays were performed in above mentioned cell lines and were also adopted to primary NSCLC cultures. […] Cells were incubated up to 70-80% confluence for approximately 24 h. […] The cells there trypsinized on ice, resuspended with 2% FBS in cold PBS solution and then fluorescence was detected using flow cytometer (BD FACSCanto II, Allschwil, Switzerland). […] For data presentation, the ratios of relative fluorescence units (RFUs) from treated samples to RFUs from vehicle-treated (control) cells were computed generating “relative substrate accumulation”.

[4] = biological target: T2, CYP2C9 (Homo sapiens, UniProt P11712); assay: Vivid CYP450 Screening Kit, recombinant CYP2C9; type: in vitro ADME; settings: recombinant enzyme; read-out: CYP2C9 inhibition IC50
T2 construct: purchased Thermo Fisher Scientific
T2 sequence (P11712 whole entry): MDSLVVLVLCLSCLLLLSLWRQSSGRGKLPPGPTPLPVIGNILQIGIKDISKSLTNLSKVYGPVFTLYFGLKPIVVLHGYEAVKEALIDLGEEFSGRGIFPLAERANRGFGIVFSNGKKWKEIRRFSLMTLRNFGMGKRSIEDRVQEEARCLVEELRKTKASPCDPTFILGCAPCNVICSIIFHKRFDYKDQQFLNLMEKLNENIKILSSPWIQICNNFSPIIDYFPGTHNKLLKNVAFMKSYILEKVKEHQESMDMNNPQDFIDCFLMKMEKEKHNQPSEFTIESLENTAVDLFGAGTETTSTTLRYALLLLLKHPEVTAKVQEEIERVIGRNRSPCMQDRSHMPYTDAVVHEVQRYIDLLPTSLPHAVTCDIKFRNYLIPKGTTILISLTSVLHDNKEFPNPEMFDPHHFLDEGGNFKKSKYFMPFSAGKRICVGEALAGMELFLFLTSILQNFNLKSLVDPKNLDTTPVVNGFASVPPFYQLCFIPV
Method: as §1

[5] = system: patient-derived NSCLC explants; assay: Daunorubicin and mitoxantrone accumulation in primary NSCLC explants; type: cell-based, human; settings: six primary cultures; predominantly those with higher transporters' expression levels
Source text: Tumor biopsies were donated by NSCLC patients at the Department of Cardiac Surgery, University Hospital Hradec Králové following written informed consent approved by the University Hospital Ethics Committee (study no. 202002 […]). Subjects' characteristics are shown in Supplementary Materials (Table S1). The NSCLC samples were collected immediately after the lung lobectomy and excision of tumor by the pathologist, which was followed by the isolation of cancer cells using a modified procedure based on previously published protocols. The tumor tissues were minced in small pieces around 2-5 mm in diameter using a scalpel. To liberate the cells from tissues, the minced pieces were transferred into the prewarmed 0.1% collagenase in 1 × MEM and placed in the water bath for 30 min. Following the incubation, BSA in MEM was added and cells were sieved through a 40 μm-sized cell strainer. Then, the solution was centrifuged at 200× g for 5 min. The pellet was resuspended with a BSA solution in MEM. […] The cells there trypsinized on ice, resuspended with 2% FBS in cold PBS solution and then fluorescence was detected using flow cytometer (BD FACSCanto II, Allschwil, Switzerland). […] For data presentation, the ratios of relative fluorescence units (RFUs) from treated samples to RFUs from vehicle-treated (control) cells were computed generating “relative substrate accumulation”.

T1 sequence (P05177 2-516 limits assumed): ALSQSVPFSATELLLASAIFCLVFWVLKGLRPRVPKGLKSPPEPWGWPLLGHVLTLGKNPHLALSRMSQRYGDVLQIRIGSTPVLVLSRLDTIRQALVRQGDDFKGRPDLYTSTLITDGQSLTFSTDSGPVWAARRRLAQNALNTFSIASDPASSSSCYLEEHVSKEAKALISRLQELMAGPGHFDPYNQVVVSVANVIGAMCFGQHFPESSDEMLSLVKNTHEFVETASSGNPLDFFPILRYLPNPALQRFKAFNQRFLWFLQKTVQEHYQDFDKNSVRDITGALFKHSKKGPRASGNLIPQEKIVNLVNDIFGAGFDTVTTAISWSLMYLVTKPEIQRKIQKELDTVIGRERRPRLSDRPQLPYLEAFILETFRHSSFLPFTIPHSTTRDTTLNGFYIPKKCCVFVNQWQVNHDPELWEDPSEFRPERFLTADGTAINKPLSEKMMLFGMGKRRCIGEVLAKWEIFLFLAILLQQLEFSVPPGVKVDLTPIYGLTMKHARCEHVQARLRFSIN

For `CN1CCC(COc2cnc(-c3cccc(Cn4nc(-c5cccc(C#N)c5)ccc4=O)c3)nc2)CC1` [tepotinib, Tepotinib], the IC50 [1] was greater than 50 µM, the “Effect on expression of clinically relevant ABC transporters and CYPs” value [2] was “did not influence expression” and the IC50 ([3]; 2 µM calcein AM, read-out: IC50, relative calceinAM accumulation) was 24.5 µM. For the same compound, the IC50 ([3]; 2 µM daunorubicin, 1 h, read-out: IC50, relative daunorubicin accumulation) was greater than 50 µM, the IC50 [4] was 1.7 µM and the “Effect on accumulation of mitoxantrone and daunorubicin” value [5] was “significantly increased the accumulation of model anticancer drugs in some of the primary samples”.
